What all share (assay type): in vivo
Assay [1] relates to target spot fungus (Corynespora cassiicola). Put plainly: Cucumber target spot control test, foliar spray before inoculation. The note with it: 200 ppm sprayed on cucumber (SAGAMI HANJIRO); inoculated one day after spraying; 7 days. Here is the method:
(§1) The control effect was evaluated by visually observing the area of lesion on each of test plants at the time of investigation, and comparing the area of lesion spots on a plant treated with the present compound with that on an untreated plant.
Each of plastic pots was filled with soil and cucumber (cultivar: SAGAMI HANJIRO) was sowed and grown in a greenhouse for 19 days. Then, each water dilution prepared by adjusting so as to contain a predetermined concentration (200 ppm) of the present compound 6 was sprayed over stems and leaves of the cucumber so that it sufficiently adhered to the surface of the leaves of the cucumber. After spraying, the plant was air-dried. After one day, an aqueous suspension containing spores of target spot fungus […]. After the inoculation, the plant was cultivated in a greenhouse at 24° C. in the daytime and 20° C. at night for 7 days, and then the area of lesion was investigated. As a result, the area of lesion on the plant treated with the present compound 6 was 30% or less of that on an untreated plant.

The test system of assay [2] is wheat rust fungus (Puccinia recondita). Put plainly: Wheat rust control test, foliar spray before inoculation. The note with it: 200 ppm sprayed on wheat (SHIROGANE); inoculated 5 days after spraying. Here is the method:
as §1
Each of plastic pots was filled with soil and wheat (cultivar: SHIROGANE) was sowed and grown in a greenhouse for 9 days. Then, each water dilution prepared by adjusting so as to contain a predetermined concentration (200 ppm) of any one compound of the present compounds 12, and 14 to 16 was sprayed over stems and leaves of the wheat so that it sufficiently adhered to the surface of the leaves of the wheat. After spraying, the plant was air-dried and cultivated at 20° C. for 5 days under illumination, and then inoculated by sprinkling with spores of wheat rust fungus (Puccinia recondita). After the inoculation, the plant was placed at 23° C. for one day under dark and high humidity condition, and cultivated under illumination at 20° C. for 8 days, and then the area of lesion was investigated.

In assay [3] the test system is cotton aphid (Aphis gossypii). Nature of the assay: Cotton aphid control test on sprayed cucumber. The note with it: 500 ppm, 20 mL sprayed on cucumber; adults and larvae; after 6 days. Here is the method:
Thirty (30) heads of cotton aphid (Aphis gossypii) (including adults and larvae) were released on the leaves of cucumber (cultivar: SAGAMI HANJIRO FUSHINARI) grown in a polyethylene cup until the first true leaf was developed. Next day, 20 mL of the test chemical solution was sprayed.
Control value (%)={1−(Cb×Tai)/(Cai×Tb)}×100
wherein symbols in the equation represent the followings: […]
Cb: Number of insects before spraying chemical solution in untreated area;
Cai: Number of surviving insects in untreated area;
Tb: Number of insects before spraying chemical solution in treated area; and
Tai: Number of surviving insects in treated area.

Assay [4] relates to barley net blotch fungus (Pyrenophora teres). Put plainly: Barley net blotch control test, foliar spray before inoculation. The note with it: 500 ppm sprayed on barley (NISHINOHOSHI); inoculated 2 days after spraying. The protocol:
as §1
Each of plastic pots was filled with soil and barley (cultivar: NISHINOHOSHI) was sowed and grown in a greenhouse for 7 days. Then, each water dilution prepared by adjusting so as to contain a predetermined concentration (500 ppm) of any one compound of the present compounds 1, and 3 to 16 was sprayed over stems and leaves of the barley so that it sufficiently adhered to the surface of the leaves of the barley. After spraying, the plant was air-dried. After 2 days, an aqueous suspension containing spores of barley net blotch fungus (Pyrenophora teres) was sprayed to inoculate the spores. After completion of the inoculation, the plant was placed for 3 days in a greenhouse at 23° C. in the daytime and 20° C. at night under high humidity condition and cultivated in a greenhouse for 7 days, and then the area of lesion was investigated. As a result, the area of lesion on the plant treated with the present compound(s) 1, or 3 to 16 was 30% or less of that on an untreated plant.

For assay [5], the system named is wheat leaf blotch fungus (Septoria tritici). Put plainly: Wheat leaf blotch control test, spray after inoculation. The conditions noted are these: 50 ppm sprayed on wheat (APOGEE) 3 days after inoculation.

The values below come from US20160272622A1, “TETRAZOLINONE COMPOUND AND USE THEREOF” (SUMITOMO CHEMICAL COMPANY, LIMITED, priority 2013, published 2016).

Bounds are passed on as bounds.

With `Cn1nnn(-c2cccnc2COc2ccn(-c3ccc(Cl)cc3)n2)c1=O` [present compound 6, 1-(2-{[1-(4-chlorophenyl)-1H-pyrazol-3-yl]oxymethyl}-pyridin-3-yl)-4-methyl-1,4-dihydrotetrazol-5-one], the “area of lesion on treated plant relative to that on an untreated plant” value in assay [1] is recorded as at most 30%. In the case of `COc1ccccc1-n1ccc(OCc2c(-n3nnn(C)c3=O)cnn2C(C)(C)C)n1` [present compound 12, 1-(1-tert-butyl-5-{[1-(2-methoxyphenyl)-1H-pyrazol-3-yl]oxymethyl}-1H-pyrazol-4-yl)-4-methyl-1,4-dihydrotetrazol-5-one], the “area of lesion on treated plant relative to that on an untreated plant” value in assay [2] is at most 30%. Also, in assay [3], the Control value is given as at least 90%. Take `Cn1nnn(-c2cnn(C(C)(C)C)c2COc2ccn(-c3ccc(Cl)cc3)n2)c1=O` [present compound 1, 1-(1-tert-butyl-5-{[1-(4-chlorophenyl)-1H-pyrazol-3-yl]oxymethyl}-1H-pyrazol-4-yl)-4-methyl-1,4-dihydrotetrazol-5-one]: the “area of lesion on treated plant relative to that on an untreated plant” value in assay [4] was at most 30%. Take `Cn1nnn(-c2cnn(C(C)(C)C)c2COc2nc(-c3ccc(Cl)cc3)cs2)c1=O` [present compound 3]: the “area of lesion on treated plant relative to that on an untreated plant” value in assay [5] is recorded as at most 30%.
